Results from BindingDB's records for doi:10.1080/14756360801915476 (Instituto De Parastiologia Y Biomedicina "Lopez-Neyra, 2009).

Columns and labels:
Assay in all cases: Inhibition Assay
Conditions in all cases: pH 8; 25 °C
[1] = target: T1, Deoxyuridine 5'-triphosphate nucleotidohydrolase, mitochondrial (Homo sapiens, UniProt P33316)
T1 sequence (P33316 whole entry): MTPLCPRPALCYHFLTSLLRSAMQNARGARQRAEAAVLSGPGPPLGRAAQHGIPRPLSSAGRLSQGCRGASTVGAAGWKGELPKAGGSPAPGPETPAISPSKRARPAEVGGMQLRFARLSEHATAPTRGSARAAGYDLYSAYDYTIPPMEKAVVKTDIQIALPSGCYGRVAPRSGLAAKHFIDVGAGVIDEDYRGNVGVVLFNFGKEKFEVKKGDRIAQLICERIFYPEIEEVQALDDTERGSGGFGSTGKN
Source text: (§1) Nucleotide hydrolysis was monitored by mixing enzyme and substrate with a rapid kinetic accessory (Hi-Tech Scientific) attached to a spectrophotometer (Cary 50). Protons, released through the hydrolysis of nucleotides, were neutralized with […] and monitored spectrophotometrically at the absorbance peak of the basic form of the indicator.

[2] = target: T2, Deoxyuridine 5'-triphosphate nucleotidohydrolase (Plasmodium falciparum (isolate 3D7), UniProt Q8II92)
T2 sequence (Q8II92 whole entry): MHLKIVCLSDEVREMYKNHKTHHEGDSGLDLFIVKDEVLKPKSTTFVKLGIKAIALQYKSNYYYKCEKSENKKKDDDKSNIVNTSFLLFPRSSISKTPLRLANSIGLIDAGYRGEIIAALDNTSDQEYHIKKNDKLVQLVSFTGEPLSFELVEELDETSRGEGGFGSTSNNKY
Source text: as §1

[3] = target: T3, dCTP deaminase (Campylobacter jejuni subsp. jejuni serotype O:2 (strain ATCC 700819 / NCTC 11168), UniProt Q9PN07)
T3 sequence (Q9PN07 whole entry): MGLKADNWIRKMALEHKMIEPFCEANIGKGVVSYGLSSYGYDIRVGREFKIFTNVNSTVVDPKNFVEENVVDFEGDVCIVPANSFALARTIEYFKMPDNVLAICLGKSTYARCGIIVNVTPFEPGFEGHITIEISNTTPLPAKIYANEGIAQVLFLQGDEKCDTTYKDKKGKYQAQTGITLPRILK
Source text: as §1

SMILES	Ki [1] [µM]	Ki [2] [µM]	Ki [3] [µM]
O=c1ccn(C2CC(O)C(CNCc3ccccc3)O2)c(=O)[nH]1 (stereo not drawn)	1000		
CC(C)(C)[Si](OCC1OC(n2ccc(=O)[nH]c2=O)CC1O)(c1ccccc1)c1ccccc1 (stereo not drawn)	805	4.2	
CC(C)(C)[Si](C)(C)OCC1OC(n2ccc(=O)[nH]c2=O)CC1F (stereo not drawn) [dUTPase inhibitor, 6]	> 1000	6.28	
O=c1ccn(C2CC(O)C(COP(=O)(Oc3ccccc3)Oc3ccccc3)O2)c(=O)[nH]1 (stereo not drawn) [dUTPase inhibitor, 1]	135	238	1000
O=c1ccn(C2C=CC(COC(c3ccccc3)(c3ccccc3)c3ccccc3)O2)c(=O)[nH]1 (stereo not drawn) [dUTPase inhibitor, 2]			1000
CC(C)(C)[Si](OCC1C=CC(n2ccc(=O)[nH]c2=O)O1)(c1ccccc1)c1ccccc1 (stereo not drawn) [dUTPase inhibitor, 5]	> 1000	1.16	
CC(C)[Si](OCC1OC(n2ccc(=O)[nH]c2=O)CC1O)(C(C)C)C(C)C (stereo not drawn)	1000	227	
O=c1ccn(C2CC(O)C(CO[Si](c3ccccc3)(c3ccccc3)c3ccccc3)O2)c(=O)[nH]1 (stereo not drawn)	908	2.8	
O=C(OCC1C=CC(n2ccc(=O)[nH]c2=O)O1)C12CC3CC(CC(C3)C1)C2 (stereo not drawn) [dUTPase inhibitor, 3]	298	57.7	547
